Turning to `CC(=O)OC1(C(C)=O)CCC2C3C(OS(C)(=O)=O)C(Cl)C4=CC(=O)OCC4(C)C3CCC21C` (stereo not drawn), the melting point (commonly the temperature, or range, at which the solid turns liquid) is 222 to 226 °C.
To `CC(C)(C)N(O)Cc1ccc(CN(O)C(C)(C)C)cc1` belongs 137 to 138 °C.
To `CCOC(=O)COc1ccc2c(=O)c3ccccc3oc2c1Cl` belongs 183 to 185 °C; to `O=c1c(Br)c(OCc2ccccc2)ccn1CCc1ccsc1`, 134 °C; to `O=C(c1ccc2ccccc2c1)P1(=O)Oc2ccccc2-c2ccccc21` (stereo not drawn), 151 to 153 °C.
With `CCCCCCCCCCCCCCCCCCOC(=O)c1ccccc1I` the figure was 35 °C.
In turn, `COc1ccc2oc(C(=O)C34CC5CC(CC(C5)C3)C4)cc2c1` came in with a melting point of 113 to 115 °C.
`COc1ccccc1Sc1c(O)cc(-c2ccccc2)oc1=O` returned a melting point of 208 to 209 °C.
To `OCc1csc(CN2CCCC2)c1` belongs 111 to 112 °C.
In turn, `C=CCN1C2CCC1C1CCC2N1C(c1ccc(C(=O)N2CCCC2)cc1)c1cccc(O)c1` (stereo not drawn) returned a melting point of 156 to 158 °C.
`OCc1cc(C(F)(F)F)ccc1Sc1ccccc1` had a melting point of 84 °C.
With `O=C1c2ccccc2C(=O)N1CC(=CBr)c1ccccc1` the figure was 128 to 129 °C.
Compound `COc1ccccc1NC(=O)CN1C(=O)c2ccccc2C1=O` came in with a melting point of 211 °C.
To `CC(=O)Nc1nc(-c2ccc(NS(C)(=O)=O)c(Oc3ccc(F)cc3F)c2)cs1` belongs 192 to 193 °C; to `CC1(O)CC(=O)OC(CCc2ccc(Cl)cc2)C1Br` (stereo not drawn), 116 to 119 °C; to `O=c1c2ccccc2ccn1Cc1ccc(F)cc1`, 107 °C.
To `Cn1cc(Cc2ccc(C(=O)N3CCC(N4CCCC4)C3)cc2)c2ccccc21` (stereo not drawn) belongs 73 to 78 °C.
Compound `NC(=NC(=O)c1nc(Cl)c(N)nc1N)NCCCCc1ccc(OCC(=O)N(CCO)CCO)cc1` yielded a melting point of 114 to 116 °C.
To `CCCC(Oc1cncc(Cl)c1)C(=O)O` (stereo not drawn) belongs 89 to 91 °C.
With `CCCCNc1cc(C(N)=O)cc(S(N)(=O)=O)c1Oc1ccccc1` the figure was 223 to 224 °C; with `Cc1onc(-c2ccc(F)cc2)c1-c1ccc(S(N)(=O)=O)c(F)c1`, 180 to 182 °C; with `CCN(CC)CCNC(=O)N1CCCC(S(=O)(=O)c2ccc(OCCN(C)C)cc2)C1` (stereo not drawn), 79 to 80 °C.
`Cc1csc(=S)n1OC(=O)c1ccccc1` gave a melting point of 100 to 102 °C.
To `COc1ccc(-c2cnn(-c3ccc(N4C[C@H](CNC(C)=O)OC4=O)cc3F)c2)cc1` belongs 226 to 228 °C; to `NNC1=NCc2c[nH]c3cccc1c23`, 188 to 189 °C; to `CC(O)c1ccc(-c2ccc(O)cc2)cc1` (stereo not drawn), 159 to 160 °C.
With `Cn1c(=O)c2cc(C(=O)O)cn2c2ccccc21` the figure was 330 to 333 °C; with `NS(=O)(=O)c1ccc(-n2cccc2-c2ccc(F)cc2)cc1`, 198 to 199 °C.
To `O=CNC1CCc2c([nH]c3ccccc23)C1` (stereo not drawn) belongs 123 to 126 °C; to `COc1ccc(C(F)(F)F)cc1NC(=N)Nc1cccc(C(F)(F)F)c1`, 45 to 47 °C; to `N#Cc1cnc2cc(-c3csc(CN4CCOCC4)c3)ccc2c1Nc1ccc(Cl)cc1Cl`, 203 to 205 °C.
Turning to `O=c1[nH]c2ccc([C@H]3CC[C@H](NCCS(=O)(=O)c4ccccc4)CC3)cc2o1`, the melting point lay within 202 to 208 °C.
Compound `O=C(O)c1ccc(-c2csc(-c3ccc(C(F)(F)F)cc3)n2)cc1` had a melting point of 275 to 276 °C.
`COC(=O)c1ccc(OC)c2c1CCO2` returned a melting point of 68 to 78 °C.
To `N#Cc1cccc2c1CCC2O` (stereo not drawn) belongs 98 °C; to `O=S(=O)(Cl)c1ccc(F)c2nonc12`, 64 to 66 °C.
To `Cc1ccccc1Nc1c(N)cnc2ccccc12` belongs 156 to 158 °C; to `OC1(c2cnccn2)CN2CCC1C2` (stereo not drawn), 180 to 183 °C.
